Test results reported in the NIST ThermoML archive (doi:10.1021/je400029t).
± gives the expanded uncertainty stated by the source.

Experiments:
[1] = Molar enthalpy of transition or fusion; details: Crystal; DSC
[2] = Crystal; DTA

SMILES: COc1ccc(C(=O)O)cc1OC [3,4-dimethoxybenzoic acid]
- Molar enthalpy of transition or fusion [1]: 7.07 ± 0.311 kcal/mol
- Normal melting temperature [2]: 179.97 ± 0.53 °C
